{"source": "patent US20010036486A1", "about": "“Method for treating nicotine addiction and deterring tobacco use with hypericum perforatum” (priority 2000, published 2001)", "origin": "cited, not measured here", "conditions": "small study; Edward et al. 1989"}
{"smiles": "CN(C)CCC=C1c2ccccc2COc2ccccc21", "note": "[doxepin]", "values": [{"measurement": "help for smoking cessation", "result": "showed some promise for helping smoking cessation"}]}
